Here are results for 14 compounds from US20070276017A1, “Thiadiazoline Derivative” (priority 2003, published 2007).

As a reminder, the IC50 is the concentration at which inhibition is half-maximal.

Bounds are passed on as bounds.

One assay concerns the target T1, human Eg5 motor domain (Homo sapiens, UniProt P52732).
T1 construct: A plasmid expressing the motor domain of human Eg5 was constructed; made in house; host or cells: Escherichia coli BL21 (DE3)
T1 sequence (P52732 18-359 limits assumed): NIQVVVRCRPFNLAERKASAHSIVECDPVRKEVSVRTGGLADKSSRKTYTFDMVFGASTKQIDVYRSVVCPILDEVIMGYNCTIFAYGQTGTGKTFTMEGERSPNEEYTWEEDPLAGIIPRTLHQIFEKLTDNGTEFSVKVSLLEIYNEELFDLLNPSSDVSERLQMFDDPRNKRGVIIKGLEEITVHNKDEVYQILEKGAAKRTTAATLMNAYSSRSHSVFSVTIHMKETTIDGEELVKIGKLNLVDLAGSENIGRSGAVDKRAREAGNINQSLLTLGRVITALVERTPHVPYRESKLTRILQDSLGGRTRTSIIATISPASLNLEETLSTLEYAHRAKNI
Put plainly: Eg5 enzyme inhibition test (2): ATPase activity of recombinant human Eg5 motor domain. Type of assay: biochemical. Particulars: tubulin/paclitaxel, 30° C. for 30 minutes, concentration-dependent inhibition. How it is done: A recombinant human Eg5 motor domain protein was prepared by referring to the literature [Biochemistry, Vol. 35, p. 2365 (1996)]. A plasmid expressing the motor domain of human Eg5 was constructed, and transformed into Escherichia coli BL21 (DE3). The transformant was cultured at 25° C., and when the OD600 reached 0.74, isopropyl-β-D-thiogalactoside was added at a final concentration of 0.5 mmol/L. The transformant was further cultured for 4 hours, and then the culture medium was centrifuged to collect the cells. The cells were suspended in a buffer and ultrasonicated, and then the sonicated solution was centrifuged to recover the supernatant. The supernatant was purified by cation exchange column chromatography to obtain a partially purified sample. Furthermore, the partially purified sample was purified by gel filtration column chromatography to obtain a finally purified sample.
Measurement of the ATPase activity of Eg5 was carried out by referring to the literatures [EMBO Journal, Vol. 13, p. 751 (1994); Proc. Natl. Acad. Sci. USA, Vol. 89, p. 4884 (1992)]. The following two kinds of solutions were prepared: Solution A consisting of 25 mmol/L piperazine N,N′-bis(ethanesulfonate) (PIPES)/KOH (pH 6.8), 1 mmol/L ethylene glycol-bis(2-aminoethyl ether)tetraacetic acid (EGTA), 2 mmol/L MgCl2, 1 mmol/L dithiothreitol (DTT), 5 μmol/L paclitaxel, 167 μg/mL bovine serum albumin (BSA), 41.7 μg/mL tubulin (Cytoskeleton, Catalog No. TL238), 333 μmol/L MESG substrate (2-amino-6-mercapto-7-methylpurine riboside) (Molecular Probes, Catalog Number E-6646), 1.67 U/mL purine nucleoside phosphorylase (Molecular Probe, Catalog No. E-6646) and 1.33 μg/mL of the human Eg5 motor domain purified sample, and Solution B consisting of 25 mmol/L piperazine N,N′-bis(ethanesulfonate) (PIPES)/KOH (pH 6.8), 1 mmol/L ethylene glycol-bis(2-aminoethyl ether)tetraacetic acid (EGTA), 2 mmol/L MgCl2, 1 mmol/L dithiothreitol (DTT), 5 μmol/L paclitaxel and 2.5 mmol/L ATP. Solution A was dispensed into each well of a 96-well plate as 45 μL portions. Solution B was used to serially dilute a test compound. The diluted test compound solutions in a volume of 30 μL were mixed with Solution A added beforehand in each well of the 96-well plate to start the enzymatic reaction. The enzymatic reaction was performed at 30° C. for 30 minutes. Absorbance at 360 nm, which serves as an index of the ATPase activity, was measured using a plate reader (Molecular Device, SpectraMax 340PC^384). The absorbance observed in the presence of Eg5 and absence of the test compound was defined 100%, and the absorbance observed in the absence of both Eg5 and the test compound was defined 0%. The relative activity was calculated to calculate IC50 value.

The subject of assay [1] is HCT 116 human colon carcinoma cells. Nature of the assay: Antiproliferative activity against HCT 116 human colon carcinoma cells (XTT, 72 hours). Format: cell-based. Particulars: read-out: GI50, concentration of compound which induces 50% inhibition of cell proliferation, HCT 116 cells, 72 hours incubation. How it is done:
HCT 116 cells (ATCC No.: CCL-247) were placed on a 96-well microtiter plate (Nunc, 167008) at a density of 1×10^3 cells/well. The plate was incubated in a 5% CO2 incubator at 37° C. for 24 hours, and then to the plate was added test compounds diluted stepwise to […] in total, and the plate was further incubated in a 5% CO2 incubator at 37° C. for 72 hours. To the culture medium, the XTT (sodium 3′-[1-(phenylaminocarbonyl)-3,4-tetrazolium]-bis(4-methoxy-6-nitro)benzenesulfonic acid hydrate) labeling mixture (Roche Diagnostics, 1465015) was dispensed in […] portions, then the plate was incubated in a 5% CO2 incubator at 37° C. for 1 hour, and the absorbance was measured at 490 nm and 655 nm with a microplate spectrophotometer (Bio-Rad, Model 550).
GI50 calculation method: The value (difference in absorbance) was calculated by subtracting the absorbance at 655 nm from the absorbance at 490 nm of each well.
(Tetrazolium dyes change colour on reduction, which living cells bring about.)

Consider `CCOCCNCCC1(c2ccccc2)SC(NC(=O)C(C)(C)C)=NN1C(=O)C(C)(C)C` (stereo not drawn) [Compound 3], for which the IC50 at human Eg5 motor domain was not above 5 µM.
`CC(C)(C)C(=O)NC1=NN(C(=O)C(C)(C)C)C(CCNCCCN2CCCC2=O)(c2ccccc2)S1` (stereo not drawn) [Compound 9]: at human Eg5 motor domain, the IC50 is not above 5 µM. Further, the GI50 in assay [1] was 0.065 µM.
Turning to `CNCCCC1(c2ccccc2)SC(NC(=O)C(C)(C)C)=NN1C(=O)C(C)(C)C` (stereo not drawn) [Compound 23], the IC50 at human Eg5 motor domain was not above 5 µM.
On the same count and under the same terms, as for `CC(C)(C)C(=O)NC1=NN(C(=O)C(C)(C)C)C(CCCNCCCO)(c2ccccc2)S1` (stereo not drawn) [Compound 29], the figure is not above 5 µM.
Turning to `CC(C)(C)C(=O)NC1=NN(C(=O)C(C)(C)C)C(CCNC(=O)C2CCCN2)(c2ccccc2)S1` (stereo not drawn) [Compound 59], on human Eg5 motor domain, the IC50 was not above 5 µM. For the same compound, the GI50 in assay [1] was less than 10 µM.
Turning to `CC(C)(C)C(=O)NC1=NN(C(=O)C(C)(C)C)C(CCCNC(=O)CN)(c2ccccc2)S1` (stereo not drawn) [Compound 73], the IC50 at human Eg5 motor domain is not above 5 µM.
In the case of `CC(C)(C)C(=O)NC1=NN(C(=O)C(C)(C)C)C(CCCNC(CO)CO)(c2ccccc2)S1` (stereo not drawn) [Compound 76], on human Eg5 motor domain, the IC50 was not above 5 µM. In addition, the GI50 in assay [1] was less than 10 µM.
`CC(C)(C)C(=O)N1N=C(N2CCCCC2=O)SC1(CCCN)c1ccccc1` (stereo not drawn) [Compound 83]: the IC50 at human Eg5 motor domain is not above 5 µM.
Regarding `CN(C)CCS(=O)(=O)NCCCC1(c2ccccc2)SC(N2CCCCC2=O)=NN1C(=O)C(C)(C)C` (stereo not drawn) [Compound 85], the IC50 at human Eg5 motor domain was not above 5 µM. In assay [1], the GI50 was less than 10 µM.
On to `CC(=O)N1N=C(NC(=O)C(C)(C)C)SC1(CCCN)c1ccccc1` (stereo not drawn) [Compound 88], for which the half-inhibitory concentration (IC50) at human Eg5 motor domain was not above 5 µM.
Consider `CC(=O)N1N=C(N2CCCC2=O)SC1(CCCN)c1ccccc1` (stereo not drawn) [Compound 90], for which the IC50 on human Eg5 motor domain is not above 5 µM.
For the compound `COC(=O)N1CCN(CCCC2(c3ccccc3)SC(NC(=O)C(C)(C)C)=NN2C(=O)C(C)(C)C)CC1` (stereo not drawn) [Compound 122], the IC50 at human Eg5 motor domain is not above 5 µM. Besides, the GI50 in assay [1] is less than 10 µM.
On to `CC(=O)N1N=C(N2CCCCC2=O)SC1(CCNC(=O)CCCN(C)C)c1ccccc1` (stereo not drawn) [Compound 144], for which the IC50 on human Eg5 motor domain was not above 5 µM. Also, in assay [1], the GI50 was less than 10 µM.
The corresponding values for `CC(C)(C)C(=O)NC1=NN(C(=O)C(C)(C)C)C(COC(=O)NCCN2CCCC2)(c2ccccc2)S1` (stereo not drawn) [Compound 181] are not above 5 µM and less than 10 µM.
